# Experimental data: patent US20260325605A1, “INHIBITORS” (Zealand Pharma A/S, priority 2022, published 2026)
# pIC50: −log10 of the molar value. Where two headings read alike, the source gives them in different places.
# Assays:
# [1] = system: T-cell activation in rat whole blood; assay: Example 4: IL-17A release in thapsigargin stimulated rat whole blood; format: cell-based, rat (Lewis or Sprague-Dawley); conditions: 24 Hr, at least 2 replicates, unit inferred, read-out: IC50 (inhibition of IL-17A release)
# Method in brief: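 Heparinised whole blood from naïve Lewis or Sprague-Dawley rats preincubated ≥5 min at RT with peptide, then stimulated with thapsigargin (40 μM stock added as one quarter of well volume) for 24 h at 37 °C. Supernatant IL-17A measured by ELISA; IC50 from curves normalised to stimulated and unstimulated controls, ≥2 replicates.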
# Kv1.3 = target: T1, Kv1.3 (Homo sapiens, UniProt P22001); assay: Patch clamp assay (QPatch), Kv1.3; format: cell-based; conditions: CHO cells stably expressing human Kv1.3, read-out: Potency IC50, Kv1.3
# T1 construct: expressed in transfected cells
# T1 sequence (P22001 whole entry): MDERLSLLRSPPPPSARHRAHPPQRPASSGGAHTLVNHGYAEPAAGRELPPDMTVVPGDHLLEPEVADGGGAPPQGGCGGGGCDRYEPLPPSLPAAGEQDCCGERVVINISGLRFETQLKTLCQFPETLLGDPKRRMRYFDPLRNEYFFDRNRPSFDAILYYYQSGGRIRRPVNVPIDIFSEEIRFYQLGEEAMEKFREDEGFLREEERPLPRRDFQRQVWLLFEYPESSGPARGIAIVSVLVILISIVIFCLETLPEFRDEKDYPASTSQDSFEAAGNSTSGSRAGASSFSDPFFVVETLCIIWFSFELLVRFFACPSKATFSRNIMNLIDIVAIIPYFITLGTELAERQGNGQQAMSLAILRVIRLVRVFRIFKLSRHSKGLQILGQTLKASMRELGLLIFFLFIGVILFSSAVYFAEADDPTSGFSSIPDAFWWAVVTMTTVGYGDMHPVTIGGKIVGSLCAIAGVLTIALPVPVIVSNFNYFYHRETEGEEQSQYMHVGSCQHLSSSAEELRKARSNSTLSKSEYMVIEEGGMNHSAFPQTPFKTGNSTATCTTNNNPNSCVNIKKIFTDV
# Protocol: (§1) Selectivity of Kv1.3 inhibitor peptides for Kv1.3 over other potassium ion channels (Kv1.1, Kv1.2 and Kv1.6) was determined using patch clamp assay.
# (§2) Chinese Hamster Ovary (CHO) cell lines stably expressing exogenous human α-subunits of each potassium ion channel were grown and passaged under standard culture conditions.
# (§3) The automated, chip-based planar patch clamp device QPatch® was used to quantitate the ionic currents. All recordings were made in the conventional whole-cell configuration after establishment of gigaohm seals. […] During experiments 0.1% (v/v) BSA was included as a vehicle in all external recording solutions. Currents were elicited from a holding potential of −80 mV using a voltage protocol, which shifted the voltage to 30 mV for 500 ms every 15 s.
# (§4) Concentration-response relationships were established by cumulatively applying seven escalating concentrations of test sample to an individual cell with a recording period of 2 min per compound application.
# (§5) The efficacy was determined as the mean charge for the last three sweeps at the end of each concentration application period from the cursor positions. The percent inhibition for each test dose application period was calculated as the reduction in mean cursor value (charge) relative to the cursor value measured at the end of the vehicle period and used to calculate the IC50 from the concentration response curve.
# Kv1.1 = target: T2, Kv1.1 (Homo sapiens, UniProt Q09470); assay: Patch clamp assay (QPatch), Kv1.1; format: cell-based; conditions: for pIC50: QPatch, CHO cells stably expressing human Kv1.1, read-out: Potency IC50, Kv1.1; for Selectivity Kv1.1/Kv1.3: ratio of IC50 Kv1.1/Kv1.3
# T2 construct: expressed in transfected cells
# T2 sequence (Q09470 whole entry): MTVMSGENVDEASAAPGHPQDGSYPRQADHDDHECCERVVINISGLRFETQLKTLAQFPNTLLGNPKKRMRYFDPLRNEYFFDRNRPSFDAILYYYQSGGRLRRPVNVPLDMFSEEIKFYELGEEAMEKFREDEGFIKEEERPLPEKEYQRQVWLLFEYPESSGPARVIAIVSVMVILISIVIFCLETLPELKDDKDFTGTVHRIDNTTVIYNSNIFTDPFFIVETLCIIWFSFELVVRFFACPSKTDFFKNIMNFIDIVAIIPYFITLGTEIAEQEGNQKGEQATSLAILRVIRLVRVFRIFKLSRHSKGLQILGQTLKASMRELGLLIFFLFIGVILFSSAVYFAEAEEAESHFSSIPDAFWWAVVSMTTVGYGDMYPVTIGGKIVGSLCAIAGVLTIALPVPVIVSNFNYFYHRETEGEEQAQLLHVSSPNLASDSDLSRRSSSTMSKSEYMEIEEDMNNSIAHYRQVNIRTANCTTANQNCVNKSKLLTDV
# [2] = Example 6: Pharmacokinetic characterisation after s.c. administration; format: in vivo, rat (Sprague Dawley or Wistar); conditions: rat, 70 nmol/kg; for AUCINF / Cmax: plasma; for T1/2: plasma terminal elimination half-life
# Protocol: Sprague Dawley or Wistar rats (males with a body weight of approximately 250-350 g) were given a single subcutaneous (s.c.) injection of each peptide to be tested.
# Following s.c. administration of the selected peptides (dose 70 nmol/kg, dosing volume either 2 or 5 mL/kg), blood samples were drawn at 15 min, 30 min, 45 min, 60 min, 90 min, 2 h, 3 h, 4 h post-dose. At each sampling time point, samples from the rats were drawn by sublingual bleeding or by tail cut. After last sampling the rats were sacrificed by O2/CO2 anaesthesia. The dosing vehicle was 10 mM phosphate, 0.8% NaCl, 0.05% Polysorbate 20 (pH 6.0).
# Plasma samples were analyzed after solid phase extraction (SPE) by liquid chromatography mass spectrometry (LC-MS/MS). Mean plasma concentrations were used for calculation of the pharmacokinetic parameters using the non-compartmental approach in Phoenix WinNonlin 6.4 or a later version. […]. AUCinf is the area under the plasma concentration−time curve extrapolated to infinity (AUCinf=AUClast+Clast/λz, where Clast is the last observed plasma concentration). Cmax is the maximum observed concentration, occurring at Tmax.
# Kv1.6 = target: T3, Kv1.6 (Homo sapiens, UniProt P17658); assay: Patch clamp assay (QPatch), Kv1.6; format: cell-based; conditions: for pIC50: QPatch, CHO cells stably expressing human Kv1.6, read-out: Potency IC50, Kv1.6; for Selectivity Kv1.6/Kv1.3: ratio of IC50 Kv1.6/Kv1.3
# T3 construct: expressed in transfected cells
# T3 sequence (P17658 whole entry): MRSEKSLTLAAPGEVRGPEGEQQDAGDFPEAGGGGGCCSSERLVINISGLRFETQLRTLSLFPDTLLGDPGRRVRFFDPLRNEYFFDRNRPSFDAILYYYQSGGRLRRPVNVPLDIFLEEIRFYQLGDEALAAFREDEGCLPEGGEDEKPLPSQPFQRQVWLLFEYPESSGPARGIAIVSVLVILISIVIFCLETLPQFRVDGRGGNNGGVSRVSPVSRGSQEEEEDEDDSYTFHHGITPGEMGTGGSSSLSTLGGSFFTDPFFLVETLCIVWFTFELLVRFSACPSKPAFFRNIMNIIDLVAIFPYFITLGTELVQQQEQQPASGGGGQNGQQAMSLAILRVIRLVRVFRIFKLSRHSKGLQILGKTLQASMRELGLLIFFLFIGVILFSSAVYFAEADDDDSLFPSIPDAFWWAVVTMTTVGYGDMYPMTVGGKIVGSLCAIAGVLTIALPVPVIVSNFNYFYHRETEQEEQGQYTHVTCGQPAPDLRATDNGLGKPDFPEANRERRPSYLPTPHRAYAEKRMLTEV
# Kv1.2 = target: T4, Kv1.2 (Homo sapiens, UniProt P16389); assay: Patch clamp assay (QPatch), Kv1.2; format: cell-based; conditions: for pIC50: QPatch, CHO cells stably expressing human Kv1.2, read-out: Potency IC50, Kv1.2; for Selectivity Kv1.2/Kv1.3: ratio of IC50 Kv1.2/Kv1.3
# T4 construct: expressed in transfected cells
# T4 sequence (P16389 whole entry): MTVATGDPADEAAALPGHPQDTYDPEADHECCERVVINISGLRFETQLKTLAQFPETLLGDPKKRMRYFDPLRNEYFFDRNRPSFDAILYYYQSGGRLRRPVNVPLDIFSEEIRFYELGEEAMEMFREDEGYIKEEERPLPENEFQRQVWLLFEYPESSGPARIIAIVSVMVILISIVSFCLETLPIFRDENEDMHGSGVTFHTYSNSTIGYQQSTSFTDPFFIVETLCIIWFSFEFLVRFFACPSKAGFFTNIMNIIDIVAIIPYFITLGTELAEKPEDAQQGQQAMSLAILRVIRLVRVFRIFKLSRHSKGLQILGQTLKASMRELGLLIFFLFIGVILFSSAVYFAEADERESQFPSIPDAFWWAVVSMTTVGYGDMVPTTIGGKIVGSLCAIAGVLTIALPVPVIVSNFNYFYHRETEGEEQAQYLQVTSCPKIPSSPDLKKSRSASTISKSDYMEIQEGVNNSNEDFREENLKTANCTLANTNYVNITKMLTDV
# Protocol: as §1, §2, §3, §4, §5
# [3] = system: T-cell activation in human whole blood; assay: Example 5: IFN-g, IL-2 and IL-17A release in thapsigargin stimulated human whole blood; format: cell-based; conditions: 24 Hr, at least 2 replicate experiments
# Text: Human whole blood was used to assess the potency of Kv1.3 inhibitor peptides on T-cell activation as determined by release of the cytokines IFN-g, IL-2 and IL-17A after stimulation with thapsigargin. Addition of thapsigargin activates a signalling cascade resulting in T cell proliferation and cytokine production, in which the Kv1.3 ion channel plays a key role. Activity of Kv1.3 inhibitors in human primary T cells can thus be measured in this experimental system.
# Human whole blood was obtained from healthy blood donors and was collected after informed consent using Sodium Heparin blood sampling tubes (Becton, Dickinson and Company (BD), Cat #367876). Test peptides were diluted to 4× final testing concentrations in assay buffer (Dulbecco's Modified Eagle's medium (DMEM) with high glucose and GlutaMAX (3.97 mM L-alanine-L-glutamine) (Gibco Cat #61965026) supplemented with 25 mM HEPES buffer, 1 mM Sodium Pyruvate, 100 units/ml Penicillin, 100 μg/ml Streptomycin and 0.05% Casein from bovine milk (Sigma-Aldrich Cat #C4765)) and 25 μl was added to wells of a 96 well tissue culture plate. Then 50 μl human whole blood was added and incubated for minimum 5 minutes at room temperature to allow compound binding. Then 25 μl of 40 μM thapsigargin diluted in assay buffer was added to all wells of the assay plates to activate the cells, followed by incubation for 24 Hr at 37° C./5% CO2 in a humidified box. The assay plates were centrifuged for 10 min at 300 g at 4° C. and the supernatants were transferred to new plates. The concentrations of IFN-g, IL-2 and IL-17A released to the supernatants were measured using a tri-plex human cytokine detection kit (MSD Human U-Plex IFN-g, IL-2 and IL-17A kit; Meso Scale Discovery Cat #K15067L-2) and all three cytokines were measured using a MSD MESO QuickPlex SQ 120 instrument as described by the manufacturer (Meso Scale Discovery, Rockville, Maryland, USA).
# To determine the potency of inhibition for the compounds, the cytokine concentration data were fitted using a three parameter logistic dose response model based on the formula Y=Bottom+(Top−Bottom)/(1+IC50/X), where Y is measured cytokine concentrations, X is compound concentrations and Top, bottom and IC50 are parameters fitted using the software Graphpad Prism version 5.04. The IC50 value calculated from the concentration response curve represents the compound concentration that gives an inhibition response halfway between the basal (Bottom) response and the maximal (Top) response.
# All values are derived from at least 2 replicate experiments. All of the tested Kv1.3 blockers were able to inhibit cytokine production from human T cells present in human whole blood that was stimulated with thapsigargin.
# [4] = system: human peripheral blood mononuclear cells (PBMCs); assay: Example 3a: IL-2 release from anti-CD3 stimulated human PBMCs; format: cell-based; conditions: for pIC50: human PBMCs, 5 donors, anti-CD3 0.5 μg/mL, geometric mean, at least 4 replicates, read-out: anti-CD3 PBMC/ IL-2 IC50
# Protocol: Human peripheral blood mononuclear cells (PBMCs) were used to assess the effects of Kv1.3 inhibitor peptides on T-cell activation as determined by IL-2 (cytokine) release after stimulation with anti-CD3.
# Human PBMCs were obtained from Precision for Medicine (Frederick, MD). Cells from 5 donors were used. Plate-bound anti-CD3 was used to stimulate bulk T cells in the PBMC preparations. Briefly, 96-well plates were coated with anti-CD3 antibody for 2 hrs at 37° C., using 50 μL of a 0.5 μg/mL anti-CD3 solution diluted in 1×PBS. Thereafter the plates were washed twice.
# Cyclosporin A (1 ug/ml) and Vm24 peptide (100 nM) were used as positive controls. Finally, 1×10^5 PBMCs were added to each well in a volume of 100 μL, giving a final volume of 200 μL per well. The plates were incubated for 20-24 hours in a 37° C./5% CO2 incubator. After centrifugation of the plates, 25 μl supernatant was transferred to IL-2 detection plates (MSD Human IL-2 Tissue Culture Kit, cat #K151AHB-2) and IL-2 was measures as described by the manufacturer (Meso Scale Discovery, Rockville, Maryland, USA).
# All values derive from at least 4 replicates.
Substance,pIC50 [1],pIC50 (Kv1.3),pIC50 (Kv1.1),Selectivity Kv1.1/Kv1.3 (Kv1.1),AUCINF [2],Cmax [2],T1/2 [2],pIC50 (Kv1.6),Selectivity Kv1.6/Kv1.3 (Kv1.6),pIC50 (Kv1.2),Selectivity Kv1.2/Kv1.3 (Kv1.2),"pIC50 ([3]; read-out: Average IC50, IFN-g)","pIC50 ([3]; read-out: Average IC50, IL-2)","pIC50 ([3]; read-out: Average IC50, IL-17A)",pIC50 [4],comparison of IC50 (IL-2 secretion) with ShK186 / Moka1 ([4]; in words)
H-NID[Nle]RC(1)SASVEC(2)KQKC(3)LKAIGSIFGKC(1)[Nle]NKKC(2)KC(3)YPR-OH [Peptide 98],8.92,9.57,< 5.52,>11300,0.085 µM·h,46.5 nM,65.4 min,< 5.52,>11300,5.69,7756,–,–,–,–,–
H-NMDMRC(1)SASVEC(2)AQKC(3)LKAIGSIFGKC(1)MNKKC(2)KC(3)YPR-NH2 [Peptide 31],9.39,9.85,< 5.52,>22000,0.0467 µM·h,33.3 nM,44.4 min,< 5.52,>22000,6.18,4897,–,–,–,–,–
H-C(1)SASVEC(2)KQKC(3)LKAIGSIFGKC(1)[Nle]NKKC(2)KC(3)YPR-NH2 [Peptide 108],8.80,9.37,< 5.52,>7000,–,–,–,< 5.52,>7000,< 5.52,>7000,10.09,9.92,9.64,–,–
H-NMDMRC(1)SASVEC(2)KQKC(3)LKAIGSIFGKC(1)[Nle]NKKC(2)KC(3)YPR-NH2 [Peptide 17],–,9.62,< 5.52,>12600,–,–,–,5.61,10360,6.88,561,–,–,–,10.30,–
H-NMDMRC(1)SASVEC(2)KQKC(3)LKAIGSRFGKC(1)MNKKC(2)KC(3)YPR-NH2 [Peptide 36],8.60,9.70,< 5.52,>15000,–,–,–,6.72,963,7.74,88,–,–,–,10.00,–
H-NMDMRC(1)SASVEC(2)KVKC(3)LKAIGSIFGKC(1)MNKKC(2)KC(3)YPR-NH2 [Peptide 18],9.06,9.38,< 5.52,>7200,–,–,–,6.04,2182,7.18,159,–,–,–,9.40,–
H-P[Nle]E[Nle]RC(1)SASVEC(2)AQKC(3)LAAIGSIFGKC(1)[Nle]NKKC(2)KC(3)YPR-OH [Peptide 107],8.92,9.26,< 5.52,>5500,0.1766 µM·h,68.4 nM,81.6 min,< 5.52,>5500,< 5.52,5500,–,–,–,–,–
H-MDMRC(1)SASVEC(2)KQKC(3)LKAIGSIFGKC(1)MNKKC(2)KC(3)YPR-OH [Peptide 6],–,9.42,< 5.52,>7900,0.0724 µM·h,48.4 nM,55.8 min,< 5.52,>7900,6.55,747,–,–,–,–,–
H-NIDMRC(1)SASVEC(2)KQKC(3)LKAIGSIFGKC(1)MNKKC(2)KC(3)YPR-OH [Peptide 9],–,9.36,< 5.52,>6800,0.0983 µM·h,76.9 nM,37.2 min,< 5.52,>6800,6.42,857,–,–,–,–,–
H-NMDMRC(1)SASVEC(2)KQKC(3)LAAIGSIFGKC(1)MNKKC(2)KC(3)YPR-NH2 [Peptide 53],9.16,9.96,< 5.52,>27500,0.0485 µM·h,31.2 nM,53.4 min,< 5.52,>27500,7.06,803,9.96,10.08,9.59,–,–
H-PIE[Nle]RC(1)SASVEC(2)KQKC(3)LAAIGSIFGKC(1)[Nle]NKKC(2)KC(3)YPR-OH [Peptide 105],9.21,9.46,< 5.52,>8600,0.1318 µM·h,58.6 nM,54.6 min,< 5.52,>8600,5.71,5630,–,–,–,–,–
"H-INVKCSLPQQCIKPCKDAGMRFGKCMNKKCRCYS-OH [Moka1, reference compound]",–,–,–,>300,–,–,–,–,>300,–,31,–,–,–,–,less potent in inhibiting IL-2 secretion
H-NMDMRC(1)SASVEC(2)KQKC(3)LYAIGSIFGKC(1)MNKKC(2)KC(3)YPR-NH2 [Peptide 54],–,9.54,< 5.52,>10300,0.0311 µM·h,50 nM,52.2 min,< 5.52,>10300,6.83,514,–,–,–,–,–
Ac-LRC(1)SASVEC(2)KQKC(3)LKAIGSIFGKC(1)[Nle]NKKC(2)KC(3)YPR-NH2 [Peptide 114],9.43,9.46,< 5.52,>8700,–,–,–,5.61,7096,6.91,352,–,–,–,–,–
H-N[Nle]S[Nle]RC(1)SASVEC(2)KQKC(3)LKAIGSIFGKC(1)[Nle]NKKC(2)KC(3)YPR-NH2 [Peptide 47],9.10,9.49,< 5.52,>9400,–,–,–,5.86,4359,6.52,943,–,–,–,–,–
